We go through eight compounds from patent publication US20120309670A1, “7-(ALK-1'-ENYL)-2H-BENZO[B][1,4]DIOXEPIN-3(4H)-ONES AND THEIR USE IN FRAGRANCE APPLICATIONS” (Givaudan SA, priority 2010, published 2012).

SMILES strings stand for the structures.

The experiment is described as follows: Odour Detection Threshold (ODT) / odour threshold. Particulars: for ODT: Odour Detection Threshold, table of compounds of Formula I.

Compound `CC(C)/C=C/c1ccc2c(c1)OCC(=O)CO2` [Example 3, (1′E)-7-(3′-Methylbut-1′-enyl)-2H-benzo[b][1,4]dioxepin-3(4H)-one] yielded an Odour threshold of 0.015 ng/L air and an ODT of 0.015 ng/L.

As to `CC(C)C/C=C/c1ccc2c(c1)OCC(=O)CO2` [Example 2, (1′E)-7-(4′-Methylpent-1′-enyl)-2H-benzo[b][1,4]dioxepin-3(4H)-one], the Odour threshold was 0.00025 ng/L air and the ODT came out at 0.00025 ng/L.

`CC(C)=Cc1ccc2c(c1)OCC(=O)CO2` [Example 7, (1′E)-7-(2′-Methylprop-1′-enyl)-2H-benzo[b][1,4]dioxepin-3(4H)-one] displayed an Odour threshold of 0.42 ng/L air and an ODT of 0.42 ng/L.

`CCC/C=C/c1ccc2c(c1)OCC(=O)CO2` [Example 5, (1′E)-7-(Pent-1′-enyl)-2H-benzo[b][1,4]dioxepin-3(4H)-one] came in with an Odour threshold of 0.00314 ng/L air and an ODT of 0.00314 ng/L.

`CCC(C)/C=C/c1ccc2c(c1)OCC(=O)CO2` (stereo not shown) [Example 8, (1′E)-7-(3′-Methylpent-1′-enyl)-2H-benzo[b][1,4]-dioxepin-3(4H)-one]: the Odour threshold was determined as 0.021 ng/L air and the ODT was 0.021 ng/L.

The compound `CC(C)(C)C/C=C/c1ccc2c(c1)OCC(=O)CO2` [Example 6, (1′E)-7-(4′,4′-Dimethylpent-1′-enyl)-2H-benzo[b][1,4]dioxepin-3(4H)-one] displayed an Odour threshold of 0.042 ng/L air and an ODT of 0.042 ng/L.

Take `CC/C=C/c1ccc2c(c1)OCC(=O)CO2` [Example 1, (1′E)-7-(But-1′-enyl)-2H-benzo[b][1,4]dioxepin-3(4H)-one]: the Odour threshold came out at 0.00157 ng/L air and the ODT was 0.00157 ng/L.

Consider `C/C=C/C=C/c1ccc2c(c1)OCC(=O)CO2` [Example 4, (1′E,3′E)-7-(Penta-1′,3′-dienyl)-2H-benzo[b][1,4]dioxepin-3(4H)-one], for which the Odour threshold was determined as 0.000141 ng/L air and the ODT came out at 0.000141 ng/L.
